Laboratory results reported in patent US20140275257A1, “N-ACETYL CYSTEINE COMPOSITIONS IN THE TREATMENT OF SYSTEMIC LUPUS ERYTHEMATOSUS” (Foundation for the State University of New York, priority 2013, published 2014).

Assays:
[1] = test system: anti-double-stranded DNA, C3, and C4; experiment: Lupus-relevant laboratory tests (anti-double-stranded DNA, C3, C4); type: in vivo, human
Source text: Routine blood tests included complete blood count, liver and kidney function test, urinalysis and lupus-relevant laboratory tests, such as anti-double-stranded DNA, C3, and C4.

mTOR = mTOR activity by phosphorylation of S6 ribosomal protein (pS6-RP) in T-cell subsets; type: in vivo, human; settings: for pS6-RPhi T cells in the DN T-cell compartment: baseline 22.5±3.7%
Experimental: mTOR activity was assessed by phosphorylation of its downstream substrate S6 ribosomal protein (pS6-RP) using a monoclonal antibody to pS6-RP (Cell Signaling; Beverly, Mass.; Cat. No. 4851) in cells permeabilized with Cytofix/CytopermPlus (BD Biosciences). […] FIG. 4A: Assessment of pS6-RP in CD3^+, CD4^+, CD8^+, and DN T cells from control (blue histograms) and lupus donors (red histograms). Blue/red values show the percentage of cell populations with increased mTOR activity in control and lupus T-cell subsets, respectively. FIG. 4B: Cumulative analysis of mTOR activity in T-cell subsets of all lupus patients relative to all healthy controls. Values represent mean±SEM of cell populations with increased mTOR activity. p values reflect comparison of lupus and healthy donors with unpaired two-tailed t-test before treatment. FIG. 4C: Effect of NAC on mTOR activity measured by the prevalence of pS6-RP^hi T cells in lupus patients exposed to all doses considered together. p values reflect comparison to pre-treatment visit 1 using two-tailed paired t-test. FIG. 4D: Effect of NAC on CD3/CD28-induced mTOR activity in T cell subsets of lupus patients exposed to all doses considered together.

FoxP3 = FoxP3 expression in T-cell subsets by flow cytometry; type: in vivo, human
Experimental: Foxp3 expression was measured in permeabilized cells using Alexa-647-conjugated antibody from BioLegend (San Diego, Calif.; cat No 320014). Up to 11 parameters were recorded simultaneously using a Becton Dickinson LSRII flow cytometer equipped with 20 mW solid-state Nd-YAG (emission at 355 nm), 20 mW argon (emission at 488 nm), 10 mW diode pumped solid state yellow-green (emission 561 nm) and 16 mW heliumneon lasers (emission at 634 nm). Each patient's cells were processed and analyzed in parallel with a matched control. […] FIG. 5A: FoxP3 expression in CD4^+/CD25^+ and CD8^+/CD25^+ T cell subsets of lupus and control donors matched for age, gender, and ethnicity by flow cytometry. Red and blue values indicate percentage of FoxP3^+ cells in lupus and control donors, respectively. FIG. 5B: Cumulative analysis of FoxP3 expression in CD25^+ T-cell subsets in lupus subjects and matched controls. p values reflect comparison with two-tailed unpaired t-test. FIG. 5C: Effect of NAC on Foxp3 expression in CD25^+ T cell subsets of lupus patients exposed to all doses considered together. p values reflect comparison with two-tailed paired t-test.

[2] = test system: murine lupus (female NZB×NZW F1 mouse model); settings: Suwannaroj et al. (2001); cited from earlier work
[3] = test system: idiopathic pulmonary fibrosis patients; settings: "high-dose" oral NAC (1.8 g/day); Demedts et al. (2005); cited from earlier work

SMILES: CC(=O)N[C@@H](CS)C(=O)O [NAC, N-acetyl-L-cysteine]
- C3 ([1]; NAC-treated patients): not affected
- C4 ([1]; NAC-treated patients): not affected
- Anti-DNA ([1]; all NAC doses considered together, after 1 month, baseline 78.9±45.2 IU/ml, p=0.049): 19.5±6.0 IU/ml
- pS6-RPhi T cells in the DN T-cell compartment (mTOR; after 2 months, p=0.0104): 16.9±2.5%
- pS6-RPhi T cells in the DN T-cell compartment (mTOR; after 3 months, p=0.0095): 16.4±2.4%
- pS6-RPhi T cells in the DN T-cell compartment (mTOR; after 4 months, p=0.0009): 12.1±2.4%
- CD3/CD28-induced mTOR activation (mTOR; all T cells after 2 months and 3 months, rebounded after washout): diminished
- CD4+/CD25+/FoxP3+ T cells (FoxP3; 4.8 g/day NAC, after 2 months, baseline 3.2±0.6%, p=0.018): 5.2±0.9%
- FoxP3 expression in CD25+ DN T cells (FoxP3; after 2-month NAC treatment, baseline 1.29±0.23%, p=0.0160): 2.24±0.38%
- percentage of FoxP3+ cells within the CD4+/CD25+ T-cell compartment (FoxP3; all NAC-treated patients, p=0.045): increased
- outcome of murine lupus in vivo [2]: improves the outcome
- disease severity in idiopathic pulmonary fibrosis [3]: diminished disease severity
